Experimental findings from article PMC10449848, “Structural basis of lipid-droplet localization of 17-beta-hydroxysteroid dehydrogenase 13” (Nature Communications, 2023) are described below.

Where “and” joins values, the source holds several entries; their conditions need not be identical. Identical values can stand only once.

The target of assay [1] is T1, human HSD17B13 (Homo sapiens, UniProt Q7Z5P4).
T1 construct: human HSD17B13 (residues 2-300, NP_835236.2); 10x His (N); TEV protease site (N); made in house; host or cells: Sf9 (baculovirus)
T1 sequence (Q7Z5P4 2-300): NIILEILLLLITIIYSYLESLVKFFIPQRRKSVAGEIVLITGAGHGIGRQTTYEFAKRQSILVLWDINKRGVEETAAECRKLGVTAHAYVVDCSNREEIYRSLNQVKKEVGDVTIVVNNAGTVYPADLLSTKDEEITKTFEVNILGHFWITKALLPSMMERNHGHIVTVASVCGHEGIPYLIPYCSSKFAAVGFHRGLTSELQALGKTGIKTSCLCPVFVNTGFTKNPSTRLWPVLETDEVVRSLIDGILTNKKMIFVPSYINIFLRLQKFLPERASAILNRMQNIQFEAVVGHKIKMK
Briefly: Co-factor (NAD+ / NADP) dependency biochemical assay, NAD(P)H-Glo readout, uninhibited vs inhibited reactions. To be noted: 30 μM 1, 20 nM protein. How it is done: Dependency of co-factor (NAD^+ and NADP^+) was determined using a purified protein HSD17B13 biochemical enzyme activity assay, using NAD(P)H-Glo luciferase readout (Promega). Substrates β-estradiol (Sigma, E8875) and Leukotriene B4 (LTB4, Cayman), 15 μM FAC in assay buffer (25 mM Tris-HCl (Sigma T2444) and 0.02% Triton X-100, pH 7.6), and 500 µM FAC co-factor (NAD^+ or NADP, Sigma, N8285) in assay buffer were added (2.5 µL/well each) to 384-well assay plates (Corning 3824) containing 2.5 μL of either 30 μM FAC inhibitor in 1% DMSO/assay buffer or vehicle (1% DMSO/assay buffer), in triplicate. The reaction was initiated by the addition of 2.5 µL/well-purified HSD17B13 protein (20 nM FAC in assay buffer). Compound, substrate, co-factor, and HSD17B13 protein were incubated in the dark at room temperature for 2 hours before the addition of 10 µL/well NAD(P)H-Glo detection reagent, prepared from luciferase detection reagent and reductase/reductase substrate, as per manufacturer’s instructions (Promega, G9061). Detection reagent was incubated in the dark for 1 hour at room temperature before plates were read on the Envision plate reader (Perkin Elmer) using a luminescent protocol. Data expressed as relative luminescent units (RLUs) were exported from the plate reader and plotted in GraphPad Prism.

In the next assay the target is T2, dog WT HSD17B13 (Canis lupus familiaris, UniProt A0A8C0PP93).
T2 construct: HSD17B13 (AA1-300, XP_038300006.1); made in house; host or cells: Sf9 (baculovirus)
T2 sequence (A0A8C0PP93 1-300): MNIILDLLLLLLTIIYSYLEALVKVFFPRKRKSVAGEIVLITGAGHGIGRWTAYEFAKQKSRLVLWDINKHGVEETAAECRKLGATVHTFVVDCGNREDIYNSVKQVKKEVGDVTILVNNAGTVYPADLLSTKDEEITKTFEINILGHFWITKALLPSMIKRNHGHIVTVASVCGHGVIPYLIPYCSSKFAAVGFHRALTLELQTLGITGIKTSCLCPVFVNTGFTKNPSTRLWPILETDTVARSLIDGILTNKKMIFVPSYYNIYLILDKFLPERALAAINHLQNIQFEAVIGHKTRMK
The experiment in a line: Thermal shift assay (static light scattering, Tagg), dog WT HSD17B13. It is filed as binding. Conditions: Fig. 6d; 500 μM NAD+. From the text: To understand ligand binding, we tested several approaches such as surface plasmon resonance and isothermal calorimetry. […] We next turned to thermal shift assays (TSA) for comparing ligand binding affinities. TSA measures the changes in the thermal denaturation temperature of a protein under different conditions such as the presence compound, changes in buffer conditions, or sequence mutations. There are various readouts including intrinsic fluorescence or light scattering signals. We chose the static light scattering methods to detect the temperatures at which our proteins start to aggregate (Tagg), which are more suitable for membrane proteins that require detergent micelles for stability.
TSA studies were run on the UNit instrument (Unchained Labs, CA, USA). […] The data was processed using the UNcle software (Unchained Labs, CA, USA), and temperatures at which the protein started aggregation were recorded as Tagg.

Assay [2] deals with T1, human HSD17B13. The experiment in a line: HSD17B13 purified protein biochemical enzyme activity assay, NAD(P)H-Glo luciferase readout. Conditions: Leukotriene B4 as substrate, NAD+ cofactor.

Usually IC50 stands for the concentration that inhibits the measured activity by half. Low readings indicate greater potency, high ones weaker potency. Consider `O=C(NC[C@]1(O)CC[C@H](COc2ccccc2F)CC1)c1ccc(O)c(F)c1` [Compound 1], for which the “signal of inhibited reaction” value on human HSD17B13 [1] (LTB4 + NAD) was 49880 RLU and 52640 RLU; at human HSD17B13 [1] (LTB4 + NADP), 49240 RLU and 47920 RLU; at human HSD17B13 [1] (β-estradiol + NAD) it was 48200 RLU and 48320 RLU; on human HSD17B13 [1] (β-estradiol + NADP), 47760 RLU and 49720 RLU. Moreover, at dog WT HSD17B13, the “stabilization in TSA” value is given as “Neither 1 nor 2 stabilized dog WT HSD17B13 significantly”. The compound further gave an IC50 on human HSD17B13 [2] of 250 ± 90 nM.
